“And” between values parts separate entries of the source, which are not always exact repeats. Equal entries are not always repeated.
Columns and labels:
[1] = test system: serum PON1; assay: Lactonase activity in sera measured with TBBL; format: biochemical, human; settings: for TBBL lactonase activity: 0.25 mM TBBL, mean and S.D.
Procedure: (§1) Lactonase Activity in Sera: Human sera were kindly provided by Michael Aviram. The samples were collected from 54 healthy individuals at Rambam Medical Center (Haifa, Israel) with the approval of the institute's Helsinki committee. Phenotyping sera for the PON1-192R/Q polymorphism was performed by a two-substrate method [Eckerson, H. W., et al., Am J Hum Genet. 35: 1126-1138] as previously described [Gaidukov, L., M. Rosenblat, M. Aviram, and D. S. Tawfik. 2006. J Lipid Res 47: 2492-2502]. Sera were divided into aliquots, supplemented with β-mercaptoethanol (5 mM) to prevent oxidation, and stored frozen at −20° C. All assays were performed in 96-well plates (Nunc), using an automated microplate reader (Bio-Tek; optical length ˜0.5 cm). Lactonase activity was measured in activity buffer (50 mM Tris pH 8.0, 1 mM CaCl2) containing 0.25 mM of 5-thiobutyl butyrolactone (TBBL) [Gaidukov, L., et al., 2006 J Lipid Res 47: 2492-2502] and 0.5 mM 5,5′-dithio-bis-2-nitrobenzoic acid (DTNB) by monitoring the absorbance at 412 nm in a final volume of 200 μl (ε=7,000 OD/M). The serum was diluted 400-fold in 100 μl of activity buffer complemented with 1 mM DTNB. DTNB was used from 100 mM stock in DMSO. TBBL was used from 250 mM stock in acetonitrile. TBBL was diluted 500-fold in activity buffer containing 2% acetonitrile. The reaction was initiated by adding 100 μl of TBBL (0.5 mM) to 100 μl of sera dilution. The final sera dilution was 800-fold. All the reaction mixtures contained a final 1% acetonitrile. Rates of spontaneous hydrolysis of TBBL in buffer were subtracted from all the measurements. Activities were expressed as U/ml (1 unit=1 μmol of TBBL hydrolyzed per minute per 1 ml of undiluted serum).

[2] = target: T1, serum PON1 (Homo sapiens, UniProt P27169, Q192R); assay: Lactonase activity in sera measured with TBBL; format: biochemical; settings: RR sera (n = 6); 0.25 mM TBBL; mean and S.D.
T1 construct: The samples were collected from 54 healthy individuals at Rambam Medical Center; from tissue; host or cells: human serum from 54 healthy individuals
T1 sequence (P27169 2-355 Q192R): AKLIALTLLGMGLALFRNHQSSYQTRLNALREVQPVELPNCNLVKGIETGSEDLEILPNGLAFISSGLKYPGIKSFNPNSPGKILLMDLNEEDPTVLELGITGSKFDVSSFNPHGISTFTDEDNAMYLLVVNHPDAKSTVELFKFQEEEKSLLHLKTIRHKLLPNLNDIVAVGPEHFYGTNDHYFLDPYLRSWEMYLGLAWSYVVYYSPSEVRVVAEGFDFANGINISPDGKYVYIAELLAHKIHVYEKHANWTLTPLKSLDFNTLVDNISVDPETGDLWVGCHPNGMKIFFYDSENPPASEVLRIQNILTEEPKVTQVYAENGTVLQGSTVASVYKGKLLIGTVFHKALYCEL
Procedure: as §1

[3] = target: T2, serum PON1 (Homo sapiens, UniProt P27169); assay: Lactonase activity in sera measured with TBBL; format: biochemical; settings: QQ sera (n = 34); 0.25 mM TBBL; mean and S.D.
T2 construct: The samples were collected from 54 healthy individuals at Rambam Medical Center; from tissue; host or cells: human serum from 54 healthy individuals
T2 sequence (P27169 2-355): as the sequence (P27169 2-355 Q192R) above, with R191Q counted along it
Procedure: as §1

[4] = target: purified human PON1 polymorphs (Homo sapiens, UniProt P27169); assay: Specific activity of purified human PON1 polymorphs for TBBL in absence of HDL; format: biochemical; settings: 0.25 mM TBBL, same for both polymorphs
Chain of purified human PON1 polymorphs (P27169 2-355): as the sequence (P27169 2-355 Q192R) above, with R191Q counted along it

[5] = test system: serum PON1; assay: Arylesterase activity in sera (phenyl acetate); format: biochemical; settings: 54 human sera
Procedure: (§2) Phenyl acetate and paraoxonase activities were measured in 50 mM Tris pH 8.0 with 1 mM CaCl2. All activities were measured with 1 mM substrate, and expressed in Units/ml for phenyl acetate (1 μmol of phenyl acetate hydrolyzed per min per 1 ml undiluted serum) or mUnits/ml for other activities (1 nmol of substrate hydrolyzed per min per 1 ml undiluted serum). Horizontal bars represent the mean value for each group.
(§3) Paraoxonase and aryl esterase activity in sera: Paraoxonase activity in sera samples was measured in activity buffer with 1 mM paraoxon by monitoring the absorbance at 405 nm in a final volume of 200 μl (ε=10,515 OD/M). Arylesterase activity was measured in activity buffer with 1 mM phenyl acetate by monitoring the absorbance at 270 nm in a final volume of 200 μL (ε=7000D/M).

[6] = test system: PON1; settings: from Gaidukov et al. 2006; cited from earlier work
[7] = test system: serum PON1; assay: Paraoxonase activity in sera; format: biochemical; settings: 54 human sera
Procedure: as §2, §3

[8] = 50 mM Tris pH 8.0, 1 mM substrate

Q: What does the source list for `CCCCSC1CCC(=O)O1` (centres unmarked) [TBBL, 5-thiobutyl butyrolactone]?
A: Variation of TBBLase activity between sera ([1]; 54 human sera): 7 fold; TBBL lactonase activity ([1]; All sera (n = 54), μmol hydrolyzed per min per 1 ml undiluted serum): 3.8 ± 1.9 Units/ml; TBBL lactonase activity ([1]; RQ sera (n = 14)): 4.1 ± 2.1 Units/ml; Mean lactonase activity in RR sera relative to QQ sera ([1]; RR vs QQ sera): 1.5 fold; TBBL lactonase activity [2]: 5.4 Units/ml and 5.4 ± 2.7 Units/ml; TBBL lactonase activity [3]: 3.5 Units/ml and 3.5 ± 1.6 Units/ml; Specific activity for TBBL [4]: 1.0±0.1 μmol/min/mg of protein

Q: With `CC(=O)Oc1ccccc1` [Phenyl acetate] as the compound, how does the “Mean ± S.D. of activity” value [5, 8] read?
A: 48.2 ± 20.9 Units activity

Q: And the Range of activity [5, 8]?
A: 15.6-100.6 Units activity

Q: And the “Variation of activity between sera (fold, in brackets under range)” value [5]?
A: (6) fold

Q: What about the “Stimulation upon HDL binding” value [6] of the same compound?
A: ca. 2 fold

Q: What does the source list for `CCOP(=O)(OCC)Oc1ccc([N+](=O)[O-])cc1` [Paraoxon]?
A: Mean ± S.D. of activity [7, 8]: 49.5 ± 36.6 Units activity; Range of activity [7, 8]: 7.7-173.5 Units activity; Variation of activity between sera (fold, in brackets under range) [7]: (23) fold

— patent publication US20100099118A1, “METHODS OF DETERMINING TOTAL PON1 LEVEL” (priority 2007, published 2010)
